# Test results from patent US20080070939A1, “LOCAL […] COMPOSITIONS CONTAINING DEXTROROTATORY MORPHINAN DERIVATIVES OR PHARMACEUTICALLY ACCEPTABLE SALTS THEREOF” (CHI MEI FOUNDATION HOSPITAL, priority 2006, published 2008).
# Structures can show the parent of a compound that is named as a salt.
# Assays:
# Male Sprague-Dawley rats [1] = experiment: Infiltrative cutaneous anesthesia (inhibition of cutaneous trunci muscle reflex, CTMR) after subcutaneous injection in rats; assay type: in vivo
# Experimental: Male Sprague-Dawley rats (weighing about 200 to 250 g); for each dose of each drug, n=8.
# In brief, hairs on the dorsal surface (about 10×10 cm^2) of the thoracolumbar region of the rat were shaved, and the shaved surface was sterilized with iodine for preparation. To reduce the number of animals used, the back of the rat was further divided into left and right parts. One drug was injected first at the right part. After a washout period of one week, another drug was injected at the left part.
# 0.6 mL of drug was injected subcutaneously under the dorsal surface of the thoracolumbar region of the rat using a 30-gauge needle attached to a syringe (Becton Drive, Franklin Lakes, USA). The subcutaneous injection would result in a circular elevation (i.e., a wheal) of the skin, about 2 cm in diameter. The elevation was marked with ink within 1 minute after injection.
# CTMR refers to the reflex movement of the skin of the back caused by twitching of the lateral thoracispinal muscle in response to local dorsal cutaneous stimulation. Essentially, a von Frey filament (No.15; Somedic Sales AB, Sweden) to which a cut end of an 18-gauge needle was affixed was used to produce a standard nociceptive stimulus (strength: 19 g). Six pinpricks (at a frequency of 0.5-1 Hz) were applied to a single marked wheal during each test. […] For example, absence of any response to all of the 6 pinpricks was defined as a complete nociceptive block (i.e., 100% MPE).
# The difference resided in that subcutaneous injections of ED25, ED50 and ED75 of the drugs were performed based on the method described in the section “A. Drug injection” of this example, and evaluation of the infiltrative cutaneous anesthetic effect was performed based on the method described in the section “B. Neurobehavioral evaluation” of this example.
# Male Sprague-Dawley rats [2] = experiment: Spinal anesthetic effect (spinal blockade) after intrathecal injection in rats; assay type: in vivo; set-up: AUC of time-% PE curve, spinal blockade of motor function / AUC of time-% PE curve, spinal blockade of proprioception / AUC of time-% PE curve, spinal blockade of nociceptive reaction: unit not given beside the values
# Experimental: Male Sprague-Dawley rats (weighing about 300 to 350 g); for each dose of each drug, n=6.
# In brief, for preparation, the hairs on the back of each rat were shaved, and the shaved back was sterilized with iodine.
# After three minutes, 50 μL of each of the tested drugs was injected via a 27-gauge needle attached to a 100-μL syringe (Hamilton, Reno, Nev.) into the intrathecal space between the fourth and fifth lumbar vertebrae. The development of spinal blockade was observed from the paralysis of the hind limbs of the rats.
# The magnitude of nerve block (including blocking of motor function, proprioception, and nociceptive reaction) was expressed as the percentage of possible effect (hereinafter referred to as % PE), and the maximal value of % PE was expressed as the percentage of maximal possible effect (hereinafter referred to as % MPE).
# Motor function was evaluated by measuring the extensor postural thrust of the right hind limbs of the rats using a digital platform balance (Mettler Toledo, Switzerland, model PB1502-S). To test the extensor postural thrust, the rat was held upright with the hind limb extended, so that the body weight of the rat was supported by the distal metatarsus and toes. The extensor postural thrust could be measured as the force of the right hind limb of the rat thrusting the platform balance.
# A reduction in the force, resulting in extensor muscle tone, was considered as a motor deficit. A force less than 20 g (i.e., a weight of the “flaccid limb”) was considered absence of an extensor postural thrust or 100% motor block or 100% MPE.
# Proprioception was evaluated based on resting posture and postural reactions (including tactile placing and hopping). First, the front half of the rat body and one of the hind limbs were lifted off the ground at the same time so that the rat was standing on one hind limb. Then, the rat was moved laterally, which normally evoked a prompt hopping response of the weight-bearing hind limb of the rat in the direction of movement so as to avoid falling. A predominantly proprioceptive block caused a delayed hopping followed by greater lateral hops. […] Functional deficits were classified into four grades: 3 (normal or 0% MPE), 2 (slightly impaired), 1 (severely impaired), and 0 (completely impaired or 100% MPE).
# Nociceptive reaction was evaluated by the withdrawal reflex or vocalization elicited by the pinch of a skin fold over the back at 1 cm near the proximal part of the tail, the lateral metatarsus of the bilateral hind limbs, and the dorsal part of the mid-tail. At each testing time, only one pinch was given to each of the abovementioned four testing sites, and the time interval between stimulations at different sites was around 2 seconds. Nociceptive reactions were classified into five grades: 4 (normal or 0% MPE), 3 (25% MPE), 2 (50% MPE), 1 (75% MPE), and 0 (absent or 100% MPE).
# The potency of each drug on spinal blockades was compared using ED50.
# Duration was defined as the interval from injection of the tested drugs to complete recovery. The ED25, ED50 and ED75 obtained according to the SAS NLIN analysis in the preceding section “C. Potency evaluation” were used in this experiment.
# Regarding the method of evaluating the effect of co-administration, dextromethorphan hydrobromide monohydrate was used as an example.
# After the tests, the time of measurement of each drug and its corresponding % PE were plotted to obtain the time-% PE curves of each drug. The area under the curve (AUC) of time-% PE was calculated using the trapezoidal rule, and was used to evaluate the effect of the co-administration of the drugs.
# Statistical software, SPSS for Windows® (version 10.0.7) was used. Data were represented as mean±SEM.
# [3] = Systemic safety indices: mortality 24 hours after intraperitoneal injection in rats; conditions: rat, in vivo, ip
# Experimental: (§1) Essentially, each drug was injected intraperitoneally into the rats (n=8). The number of dead rats was observed after 24 hours, and the rate of mortality (%) was calculated. Thereafter, the doses of each drug and the relative mortality were plotted to obtain dose-mortality curves of the drugs. […] The safety index (LD50/ED50) of each drug was calculated using the LD50 thus obtained and the ED50 obtained in the section “C. Potency evaluation” of this example.
# rats = experiment: as above
# Experimental: as §1
# [4] = infiltrative cutaneous anesthesia, rats, 2ED50 when administered independently, ED50 for co-administration, mean ± SEM
# [5] = infiltrative cutaneous anesthesia, subcutaneous injection, rats
# [6] = subcutaneous dose of ED75, rats, mean±SEM
# [7] = intrathecal, rats, 2 ED50 when administered independently, ED50 of each drug when co-administered, mean ± SEM
# [8] = spinal blockade, mean of motor function, proprioception and nociceptive reaction, intrathecal, rats
smiles,measurement,setting,value
COc1ccc2c(c1)[C@]13CCCC[C@@H]1[C@H](C2)N(C)CC3 [Dextromethorphan hydrobromide monohydrate],ED50,"Male Sprague-Dawley rats [1]; Rattus norvegicus, sc, infiltrative cutaneous anesthesia, subcutaneous injection, rats, read-out: ED50 (95% CI)",2.05 mg/kg
same,% MPE,Male Sprague-Dawley rats [1]; [4],67 ± 8 % MPE
same,AUC (% min.),Male Sprague-Dawley rats [1]; [4],2300 ± 440 % min.
same,Duration,Male Sprague-Dawley rats [1]; [4],58 ± 4 min
same,ED25,Male Sprague-Dawley rats [1]; [5],1.35 mg/kg
same,ED75,Male Sprague-Dawley rats [1]; [5],3.11 mg/kg
same,duration of cutaneous anesthesia compared with lidocaine hydrochloride,"Male Sprague-Dawley rats [1]; same effective doses (ED25, ED50 or ED75), rats",longer duration
same,% MPE of cutaneous nociceptive block,Male Sprague-Dawley rats [1]; [6],71±8 % MPE
same,duration of cutaneous nociceptive block,Male Sprague-Dawley rats [1]; [6],approximately 50±5 minutes
same,effect of co-administration with lidocaine hydrochloride on cutaneous nociceptive blockade,"Male Sprague-Dawley rats [1]; subcutaneous, rats, ED50 of each drug",additive effect
same,"% MPE of spinal blockades of motor function, proprioception and nociceptive reaction (range over the three functions)","Male Sprague-Dawley rats [2]; intrathecal dose of ED75, rats",66-80 % MPE
same,"duration of spinal blockades of motor function, proprioception and nociceptive reaction (range over the three functions)","Male Sprague-Dawley rats [2]; intrathecal dose of ED75, rats",22 to 40 min
same,effect of co-administration with bupivacaine hydrochloride on spinal blockade,"Male Sprague-Dawley rats [2]; intrathecal, rats, ED50 of each drug",additive effect
same,"AUC of time-% PE curve, spinal blockade of motor function",Male Sprague-Dawley rats [2]; [7],953 ± 114
same,"AUC of time-% PE curve, spinal blockade of nociceptive reaction",Male Sprague-Dawley rats [2]; [7],4131 ± 385
same,"AUC of time-% PE curve, spinal blockade of proprioception",Male Sprague-Dawley rats [2]; [7],1985 ± 219
same,Motor function ED50 (95% CI),"Male Sprague-Dawley rats [2]; spinal blockade of motor function, intrathecal injection, rats",0.56 (0.54–0.59) mg
same,Nociceptive reaction ED50 (95% CI),"Male Sprague-Dawley rats [2]; spinal blockade of nociceptive reaction, intrathecal injection, rats",0.46 (0.43–0.49) mg
same,Proprioception ED50 (95% CI),"Male Sprague-Dawley rats [2]; spinal blockade of proprioception, intrathecal injection, rats",0.48 (0.45–0.52) mg
same,Mean value ED25,Male Sprague-Dawley rats [2]; [8],0.39 mg
same,Mean value ED50,Male Sprague-Dawley rats [2]; [8],0.50 mg
same,Mean value ED75,Male Sprague-Dawley rats [2]; [8],0.65 mg
same,LD50 at 24 h,[3],138 mg/kg
same,systemic safety index relative to that of lidocaine hydrochloride,"rats; LD50/ED50, rats",2.4 times
same,safety index LD50/ED50,"rats; LD50 intraperitoneal / ED50 of infiltrative cutaneous anesthesia, rats",67.3
